# ChEMBL document CHEMBL1159186 (Bioorg Med Chem Lett, 1996)
# Columns and labels:
# [1] = target: Protein kinase C delta type (Homo sapiens, UniProt Q05655); assay: Inhibition of serine/threonine kinase(PKC-delta); design: species or system Sus scrofa
# [2] = target: Epidermal growth factor receptor (Homo sapiens, UniProt P00533); assay: Inhibition of tyrosine kinase Epidermal growth factor receptor
# [3] = target: Protein kinase C alpha type (Homo sapiens, UniProt P17252); assay: Inhibition of serine/threonine kinase(PKC-alpha); design: species or system Sus scrofa
# [4] = target: cAMP-dependent protein kinase (PKA) (Homo sapiens, UniProt P22694+P17612+P22612); assay: Inhibition of serine/threonine kinase(PKA); format: protein assay, Oryctolagus cuniculus
# [5] = target: Proto-oncogene tyrosine-protein kinase Src (Homo sapiens, UniProt P12931); assay: Inhibition of tyrosine kinase(c-Src)
# [6] = target: Platelet-derived growth factor receptor (Homo sapiens, UniProt P09619+P16234); assay: Inhibition of tyrosine kinase(PDGF-R); format: protein-complex assay
# Sequence of Epidermal growth factor receptor (P00533 whole entry): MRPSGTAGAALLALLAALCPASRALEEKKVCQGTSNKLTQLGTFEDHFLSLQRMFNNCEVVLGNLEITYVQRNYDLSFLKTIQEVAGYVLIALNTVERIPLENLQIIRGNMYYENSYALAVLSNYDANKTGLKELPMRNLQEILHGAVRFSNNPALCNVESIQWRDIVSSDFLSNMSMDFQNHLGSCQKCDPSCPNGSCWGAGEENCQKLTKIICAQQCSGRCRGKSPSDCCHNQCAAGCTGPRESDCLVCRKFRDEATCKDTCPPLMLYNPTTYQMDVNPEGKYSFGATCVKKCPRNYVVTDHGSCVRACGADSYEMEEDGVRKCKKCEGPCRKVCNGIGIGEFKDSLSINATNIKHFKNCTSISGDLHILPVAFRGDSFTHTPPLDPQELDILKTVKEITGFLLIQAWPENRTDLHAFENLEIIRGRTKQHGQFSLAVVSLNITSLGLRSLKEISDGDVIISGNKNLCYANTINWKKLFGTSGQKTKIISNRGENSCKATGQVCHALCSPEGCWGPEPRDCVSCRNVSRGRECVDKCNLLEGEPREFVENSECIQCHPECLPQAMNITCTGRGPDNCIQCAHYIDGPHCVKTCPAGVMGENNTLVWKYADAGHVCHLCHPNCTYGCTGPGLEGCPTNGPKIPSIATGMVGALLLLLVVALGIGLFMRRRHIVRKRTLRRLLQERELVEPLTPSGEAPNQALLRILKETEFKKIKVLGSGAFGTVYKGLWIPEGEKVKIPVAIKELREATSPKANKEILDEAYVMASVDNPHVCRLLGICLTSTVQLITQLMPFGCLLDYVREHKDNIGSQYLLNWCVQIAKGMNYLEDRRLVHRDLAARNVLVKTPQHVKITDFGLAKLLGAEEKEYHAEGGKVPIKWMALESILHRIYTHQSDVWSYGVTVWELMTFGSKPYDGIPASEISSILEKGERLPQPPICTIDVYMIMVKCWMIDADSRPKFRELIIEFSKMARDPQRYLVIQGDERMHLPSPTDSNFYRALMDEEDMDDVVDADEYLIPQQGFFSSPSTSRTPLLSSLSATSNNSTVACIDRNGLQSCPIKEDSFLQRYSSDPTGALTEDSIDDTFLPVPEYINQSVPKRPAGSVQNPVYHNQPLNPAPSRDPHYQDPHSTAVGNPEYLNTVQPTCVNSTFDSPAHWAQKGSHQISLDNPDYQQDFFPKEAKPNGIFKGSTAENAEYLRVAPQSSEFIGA
# Sequence of Protein kinase C delta type (Q05655 whole entry): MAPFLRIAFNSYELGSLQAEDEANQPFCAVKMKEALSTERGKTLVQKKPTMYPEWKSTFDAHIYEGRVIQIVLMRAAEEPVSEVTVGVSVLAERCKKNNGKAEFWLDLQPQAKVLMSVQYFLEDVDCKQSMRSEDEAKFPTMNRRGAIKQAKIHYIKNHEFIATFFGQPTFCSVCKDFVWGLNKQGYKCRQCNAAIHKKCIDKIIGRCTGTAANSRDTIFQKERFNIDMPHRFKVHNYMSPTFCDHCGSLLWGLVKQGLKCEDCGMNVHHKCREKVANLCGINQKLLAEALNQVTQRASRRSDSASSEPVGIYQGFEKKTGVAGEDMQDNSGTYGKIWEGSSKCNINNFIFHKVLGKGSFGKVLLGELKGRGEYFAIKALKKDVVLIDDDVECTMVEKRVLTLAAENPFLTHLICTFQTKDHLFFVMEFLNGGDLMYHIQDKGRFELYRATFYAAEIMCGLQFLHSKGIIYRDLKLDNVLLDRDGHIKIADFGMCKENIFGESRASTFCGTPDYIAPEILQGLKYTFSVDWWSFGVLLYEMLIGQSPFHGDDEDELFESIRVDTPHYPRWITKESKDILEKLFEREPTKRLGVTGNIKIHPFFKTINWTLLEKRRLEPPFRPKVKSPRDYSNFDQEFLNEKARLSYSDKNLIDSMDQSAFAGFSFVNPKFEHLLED
# Sequence of Proto-oncogene tyrosine-protein kinase Src (P12931 2-536 limits assumed): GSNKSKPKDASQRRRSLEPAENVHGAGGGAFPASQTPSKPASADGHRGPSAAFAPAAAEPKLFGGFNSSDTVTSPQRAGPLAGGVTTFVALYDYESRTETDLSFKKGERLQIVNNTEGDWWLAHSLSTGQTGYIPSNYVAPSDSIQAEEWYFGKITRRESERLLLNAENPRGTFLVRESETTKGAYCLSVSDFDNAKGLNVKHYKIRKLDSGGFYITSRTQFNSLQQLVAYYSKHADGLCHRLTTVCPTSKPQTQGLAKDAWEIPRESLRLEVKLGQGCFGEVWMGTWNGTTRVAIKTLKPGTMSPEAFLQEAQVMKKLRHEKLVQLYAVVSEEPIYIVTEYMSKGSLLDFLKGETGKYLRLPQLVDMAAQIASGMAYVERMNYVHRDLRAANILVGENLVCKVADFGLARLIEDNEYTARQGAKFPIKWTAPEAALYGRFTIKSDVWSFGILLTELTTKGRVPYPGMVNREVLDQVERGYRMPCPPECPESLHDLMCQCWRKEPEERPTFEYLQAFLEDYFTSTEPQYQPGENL
IC50 [1] [µM],IC50 [2] [µM],IC50 [3] [µM],IC50 [4] [µM],IC50 [5] [µM],IC50 [6] [µM],Compound
> 500,> 100,> 100,> 100,> 100,0.05,Cc1ccc(NC(=O)c2ccc3ccccc3c2)cc1Nc1nccc(-c2cccnc2)n1
> 500,> 100,> 500,> 500,> 100,> 100,Cc1ccc([N+](=O)[O-])cc1Nc1nccc(-c2cccnc2)n1
> 500,,72,> 500,,,Cc1ccc(NC(=O)c2ccccc2)cc1Nc1nccc(-c2cccnc2)n1
> 100,> 100,> 100,> 500,> 100,> 10,Cc1ccc(NC(=O)c2ccccc2)cc1Nc1nccc(-c2cccs2)n1
> 100,> 100,> 100,> 500,,> 10,Cc1ccc(NC(=O)c2ccccc2)cc1Nc1nccc(-c2ccc[n+]([O-])c2)n1
> 100,> 100,10,> 500,,> 10,COc1ccc(NC(=O)c2ccccc2)cc1Nc1nccc(-c2cccnc2)n1
> 500,> 100,> 100,> 100,> 100,0.01,Cc1ccc(NC(=O)c2ccc(Cl)cc2)cc1Nc1nccc(-c2cccnc2)n1
> 100,> 100,71,> 500,,> 10,CNc1ccc(C)c(Nc2nccc(-c3cccnc3)n2)c1
> 100,75,> 100,> 500,,2.5,Cc1ccc(N(C(=O)c2ccccc2)C(=O)c2ccccc2)cc1Nc1nccc(-c2cccnc2)n1
> 500,> 100,> 100,> 500,> 100,> 10,Cc1ccc(N)cc1Nc1nccc(-c2cccnc2)n1
> 100,49,85,> 500,,> 100,Cc1ccc(N(C)C(=O)c2ccccc2)cc1Nc1nccc(-c2cccnc2)n1
> 100,> 100,> 100,> 500,,0.15,O=C(Nc1ccc(Cl)c(Nc2nccc(-c3cccnc3)n2)c1)c1ccccc1
> 500,> 100,> 100,> 500,> 100,0.3,COc1ccccc1C(=O)Nc1ccc(C)c(Nc2nccc(-c3cccnc3)n2)c1
> 500,> 100,> 100,> 500,> 100,50,CC(=O)Nc1ccc(C)c(Nc2nccc(-c3cccnc3)n2)c1

Compound,IC50 [1] [µM],IC50 [2] [µM],IC50 [3] [µM],IC50 [4] [µM],IC50 [5] [µM],IC50 [6] [µM]
Cc1ccc(C(=O)Nc2ccc(C)c(Nc3nccc(-c4cccnc4)n3)c2)cc1,> 500,> 100,> 100,> 100,> 100,0.01
O=C(Nc1cccc(Nc2nccc(-c3cccnc3)n2)c1)c1ccccc1,23,> 50,1.2,> 500,15.7,5
